These compounds were tested against T1, RIPK2 enzyme (Homo sapiens, UniProt O43353) (assay: RIPK2 inhibition (ADP-Glo Kinase Assay)). Details: RIPK2 5 nM, ATP 150 μM, MBP substrate, read-out: RIPK2 IC50.
T1 construct: purchased Carna 09-128
Format: biochemical
Protocol: RIPK2 inhibition was measured as follows:
The V9102 ADP-Glo Kinase Assay (including ultrapure ATP, 10 mM) was purchased from Promega. Native swine MBP was used as the substrate for the reaction and was purchased from SignalChem Biotech (catalogue number M42-51N). Assay buffer used for the assay consisted of the following components: MgCl2 (final concentration of 10 mM), Brij-35 (0.01%), DTT (final concentration of 2 mM), BSA (0.05%), EGTA (final concentration of 1 mM), and HEPE (pH 7.5 at final concentration of 50 mM).
Method: In a 384 well plate, 10 nL of test compound was dispensed using Echo550 and mixed with RIPK2 enzyme (final concentration of 5 nM) in assay buffer for 30 minutes at room temperature. […] Then ADP-Glo reagent was added and incubated for 60 min at room temperature. Last, Kinase Detection Reagent was added to the mixture and incubated for 60 min. The resulting luminescent signal was measured with an Envision reader to determine the amount of ADP produced. All plates contained vehicle controls (10 nL DMSO only) as a reference for the high control (0% kinase inhibition), and wells with no RIPK2 enzyme as reference for low control (100% kinase inhibition). Data were analyzed to determine the percent inhibition of ADP production in the presence of test compound using both low and high controls.

T1 sequence (O43353 1-299 limits assumed): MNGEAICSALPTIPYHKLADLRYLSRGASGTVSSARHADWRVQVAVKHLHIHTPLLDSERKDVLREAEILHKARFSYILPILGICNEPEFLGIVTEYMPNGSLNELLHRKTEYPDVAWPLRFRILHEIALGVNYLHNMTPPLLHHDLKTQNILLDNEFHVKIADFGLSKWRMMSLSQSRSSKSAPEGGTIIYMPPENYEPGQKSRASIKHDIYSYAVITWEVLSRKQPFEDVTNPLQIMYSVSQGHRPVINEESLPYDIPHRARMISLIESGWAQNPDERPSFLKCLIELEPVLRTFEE

First: CN1[C@@H]2CC[C@H]1C[C@@H](Oc1ccc3ncnc(Oc4cnc(CC(=O)Nc5cnn(C(C)(C)C)c5)c(F)c4)c3c1)C2 [Compound 62, N-(1-(tert-butyl)-1H-pyrazol-4-yl)-2-(3-fluoro-5-((6-(((1R,3r,5S)-8-methyl-8-azabicyclo [3.2.1]octan-3-yl)oxy)quinazolin-4-yl)oxy)pyridin-2-yl)acetamide]
Second: CC(C)(C)n1cc(NC(=O)Cc2ncc(Oc3ncnc4ccc(OC5CCN(CC(F)(F)F)CC5)cc34)cc2F)cn1 [Compound 112, N-(1-(tert-butyl)-1H-pyrazol-4-yl)-2-(3-fluoro-5-((6-((1-(2,2,2-trifluoroethyl)piperidin-4-yl)oxy)quinazolin-4-yl)oxy)pyridin-2-yl)acetamide]
The IC50 of the first is 1.6-fold lower: 13.2 nM for the first, 20.8 nM for the second. The first is the more potent here.

Going from `CCS(=O)(=O)c1ccc2nccc(Oc3ccc(CC(=O)Nc4cnn(C(C)(C)C)c4)c(F)c3)c2c1` [Compound 130, N-(1-(tert-butyl)-1H-pyrazol-4-yl)-2-(4-((6-(ethylsulfonyl)quinolin-4-yl)oxy)-2-fluorophenyl)acetamide] to `CCS(=N)(=O)c1ccc2nccc(Oc3ccc(CC(=O)Nc4cnn(C(C)(C)C)c4)c(F)c3)c2c1` (stereo not drawn) [Compound 73, N-(1-(tert-butyl)-1H-pyrazol-4-yl)-2-(4-((6-(ethylsulfonimidoyl)quinolin-4-yl)oxy)-2-fluorophenyl) acetamide], the IC50 rises from less than 2.5 nM to 3.2 nM.

Going from `COc1ccc2ncnc(Oc3ccc(CC(=O)Nc4cc(C(C)(C)C)n(C)n4)c(F)c3)c2c1` [Compound 37, N-(5-(tert-butyl)-1-methyl-1H-pyrazol-3-yl)-2-(2-fluoro-4-((6-methoxy-quinazolin-4-yl)oxy)phenyl) acetamide] to `CC(C)(C)n1cc(NC(=O)Cc2ccc(Oc3ncnc4ccc(C(=O)N5CCCC5)cc34)cc2F)cn1` [Compound 27, N-(1-(tert-butyl)-1H-pyrazol-4-yl)-2-(2-fluoro-4-((6-(pyrrolidine-1-carbonyl)quinazolin-4-yl)oxy)phenyl) acetamide], the IC50 rises from 7.8 nM to 19.2 nM (2.5-fold).

`Cc1c(Oc2ccnc3ccc(S(=O)(=O)C4CCNCC4)cc23)ccc(CC(=O)Nc2cnn(C(C)(C)C)c2)c1F` [Compound 312, N-(1-(tert-butyl)-1H-pyrazol-4-yl)-2-(2-fluoro-3-methyl-4-((6-(piperidin-4-ylsulfonyl)quinolin-4-yl)oxy)phenyl)acetamide] and `Cc1c(Oc2ccnc3ccc(N4CCCC4=O)cc23)ccc(CC(=O)Nc2cnn(C(C)(C)C)c2)c1F` [Compound 295, N-(1-(tert-butyl)-1H-pyrazol-4-yl)-2-(2-fluoro-3-methyl-4-((6-(2-oxopyrrolidin-1-yl)quinolin-4-yl)oxy)phenyl) acetamide] cannot be ordered by IC50: less than 2.5 nM for the first, less than 2.5 nM for the second.

First: C[S+]([O-])c1ccc2nccc(Oc3ccc(CC(=O)Nc4cnn(C(C)(C)C)c4)c(F)c3)c2c1 (stereo not drawn) [Compound 45, N-(1-(tert-butyl)-1H-pyrazol-4-yl)-2-(2-fluoro-4-((6-(methylsulfinyl)quinolin-4-yl)oxy)phenyl)acetamide]
Second: CC(C)(C)n1cc(NC(=O)Cc2ccc(Oc3ccnc4ccc(S(C)(=O)=NC#N)cc34)cc2F)cn1 (stereo not drawn) [Compound 71, N-(1-(tert-butyl)-1H-pyrazol-4-yl)-2-(4-((6-(N-cyano-S-methylsulfonimidoyl)quinolin-4-yl)oxy)-2-fluorophenyl)acetamide]
The IC50 of the first is lower: less than 2.5 nM for the first, 9.1 nM for the second.

`CC(C)(C)n1cc(NC(=O)Cc2ccc(Oc3ncnc4ccc(OC5CCNCC5)cc34)c(F)c2F)cn1` [Compound 169, N-(1-(tert-butyl)-1H-pyrazol-4-yl)-2-(2,3-difluoro-4-((6-(piperidin-4-yloxy)quinazolin-4-yl)oxy)phenyl) acetamide] and `Cc1c(Oc2ccnc3ccc(O[C@H]4C[C@H]5CC[C@@H](C4)N5)cc23)ccc(CC(=O)Nc2cnn(C(C)(C)C)c2)c1F` [Compound 409, 2-(4-((6-(((1R,3r,5S)-8-azabicyclo[3. 2.1]octan-3-yl)oxy)quinolin-4-yl)oxy)-2-fluoro-3-methyl-pheny1)-N-(1-(tert-butyl)-1H-pyrazol-4-yl)acetamide] cannot be ordered by IC50: less than 2.5 nM for the first, less than 2.5 nM for the second.

`COc1cc2nccc(Oc3cc(F)c(CC(=O)Nc4cnn(C(C)(C)C)c4)cc3C)c2cc1S(C)(=O)=O` [Compound 412, N-(1-(tert-butyl)-1H-pyrazol-4-yl)-2-(2-fluoro-4-((7-methoxy-6-(methylsulfonyl)quinolin-4-yl)oxy)-5-methylphenyl) acetamide] and `Cc1cc(CC(=O)Nc2cnn(C(C)(C)C)c2)c(F)cc1Oc1ccnc2ccc(-c3ncn(C)n3)cc12` [Compound 427, N-(1-(tert-butyl)-1H-pyrazol-4-yl)-2-(2-fluoro-5-methyl-4-((6-(1-methyl-1H-1,2,4-triazol-3-yl)quinolin-4-yl)oxy)phenyl)acetamide] cannot be ordered by IC50: less than 2.5 nM for the first, less than 2.5 nM for the second.

`Cc1c(Oc2ccnc3ccc(C(=O)N4CCCC4)cc23)ccc(CC(=O)Nc2cnn(C(C)(C)C)c2)c1F` [Compound 350, N-(1-(tert-butyl)-1H-pyrazol-4-yl)-2-(2-fluoro-3-methyl-4-((6-(pyrrolidine-1-carbonyl)quinolin-4-yl)oxy)phenyl) acetamide] and `Cc1c(Oc2ccnc3ccc(C(=O)N4CCOCC4)cc23)ccc(CC(=O)Nc2cnn(C(C)(C)C)c2)c1F` [Compound 355, N-(1-(tert-butyl)-1H-pyrazol-4-yl)-2-(2-fluoro-3-methyl-4-((6-(morpholine-4-carbonyl)quinolin-4-yl)oxy)phenyl) acetamide] cannot be ordered by IC50: less than 2.5 nM for the first, less than 2.5 nM for the second.

`Cc1cc(CC(=O)Nc2cnn(C(C)(C)C)c2)c(F)cc1Oc1ccnc2ccc(C(=O)N3CCCC3)cc12` [Compound 377, N-(1-(tert-butyl)-1H-pyrazol-4-yl)-2-(2-fluoro-5-methyl-4-((6-(pyrrolidine-1-carbonyl)quinolin-4-yl)oxy)phenyl) acetamide] and `Cc1cc(CC(=O)Nc2cnn(C(C)(C)C)c2)c(F)cc1Oc1ccnc2ccc(C(=O)N3CCC(O)CC3)cc12` [Compound 380, N-(1-(tert-butyl)-1H-pyrazol-4-yl)-2-(2-fluoro-4-((6-(4-hydroxy-piperidine-1-carbonyl)quinolin-4-yl)oxy)-5-methyl-phenyl) acetamide] cannot be ordered by IC50: less than 2.5 nM for the first, less than 2.5 nM for the second.

Compared with `CS(=O)(=O)c1ccc2nccc(Oc3ccc(CC(=O)Nc4cc(C5CC5)[nH]n4)c(F)c3)c2c1` [Compound 145, N-(5-cyclopropyl-1H-pyrazol-3-yl)-2-(2-fluoro-4-((6-(methylsulfonyl)quinolin-4-yl)oxy)phenyl)acetamide], `CC(C)(C)n1cc(NC(=O)Cc2ccc(Oc3ccnc4ccc(NS(C)(=O)=O)cc34)cc2F)cn1` [Compound 68, N-(1-(tert-butyl)-1H-pyrazol-4-yl)-2-(2-fluoro-4-((6-(methylsulfonamido)quinolin-4-yl)oxy)phenyl)acetamide] is lower in IC50: 3.1 nM for the first, less than 2.5 nM for the second.

`Cc1cc(CC(=O)Nc2cnn(C(C)(C)C)c2)c(F)cc1Oc1ccnc2ccc(C(=O)N3C[C@@H](C)N[C@@H](C)C3)cc12` [Compound 388, N-(1-(tert-butyl)-1H-pyrazol-4-yl)-2-(4-((6-((3R,5S)-3,5-dimethyl-piperazine-1-carbonyl)quinolin-4-yl)oxy)-2-fluoro-5-methyl-phenyl) acetamide] and `Cc1cc(CC(=O)Nc2cnn(C(C)(C)C)c2)c(F)cc1Oc1ccnc2ccc(C(=O)N3CCC(O)C3)cc12` (single isomer, unassigned) [Compound 376, N-(1-(tert-butyl)-1H-pyrazol-4-yl)-2-(2-fluoro-4-((6-(3-hydroxy-pyrrolidine-1-carbonyl)quinolin-4-yl)oxy)-5-methylphenyl) acetamide] cannot be ordered by IC50: less than 2.5 nM for the first, less than 2.5 nM for the second.

`Cc1cc(CC(=O)Nc2cnn(C(C)(C)C)c2)ccc1Oc1ccnc2ccc(S(=O)(=O)C3CC(N)C3)cc12` (single isomer, unassigned) [Compound 283, 2-(4-((6-((-3-aminocyclobutyl)sulfonyl)quinolin-4-yl)oxy)-3-methylphenyl)-N-(1-(tert-butyl)-1H-pyrazol-4-yl)acetamide] and `Cc1cc(CC(=O)Nc2cnn(C(C)(C)C)c2)ccc1Oc1ccnc2ccc(OCC(C)O)cc12` (single isomer, unassigned) [Compound 224, N-(1-(tert-butyl)-1H-pyrazol-4-yl)-2-(4-((6-(2-hydroxy-propoxy)quinolin-4-yl)oxy)-3-methylphenyl) acetamide] cannot be ordered by IC50: less than 2.5 nM for the first, less than 2.5 nM for the second.

`Cc1cc(CC(=O)Nc2cnn(C(C)(C)C)c2)c(F)cc1Oc1ccnc2ccc(C(=O)NC3CNC3)cc12` [Compound 397, N-(azetidin-3-yl)-4-(4-(2-((1-(tert-butyl)-1H-pyrazol-4-yl)amino)-2-oxoethyl)-5-fluoro-2-methyl-phenoxy) quinoline-6-carboxamide] and `Cc1c(Oc2ccnc3ccc(C(=O)N(C)C)cc23)ccc(CC(=O)Nc2cnn(C(C)(C)C)c2)c1F` [Compound 336, 4-(4-(2-((1-(tert-butyl)-1H-pyrazol-4-yl)amino)-2-oxoethyl)-3-fluoro-2-methyl-phenoxy)-N,N-dimethyl-quinoline-6-carboxamide] cannot be ordered by IC50: less than 2.5 nM for the first, less than 2.5 nM for the second.

Work on `COC(C)(C)c1ccc2nccc(Oc3ccc(CC(=O)Nc4cnn(C(C)(C)C)c4)c(F)c3C)c2c1` [Compound 303, N-(1-(tert-butyl)-1H-pyrazol-4-yl)-2-(2-fluoro-4-((6-(2-methoxypropan-2-yl)quinolin-4-yl)oxy)-3-methylphenyl)acetamide] yielded an IC50 of less than 2.5 nM.

From patent US12624018B1, “Inhibitors of RIPK2 and medical uses thereof” (Odyssey Therapeutics, Inc., priority 2022, dated 2026)
